Assay results from publication PMC10196118, “Evidence for broad cross-reactivity of the SARS-CoV-2 NSP12-directed CD4^+ T-cell response with pre-primed responses directed against common cold coronaviruses” (Frontiers in Immunology, 2023).

Key:
[1] = molecular target: HLA DRB1*15:01 (Homo sapiens, UniProt P01903+P01911); experiment: biochemical; type: binding; conditions: binder threshold 1,000 nM, read-out: In vitro (IC50 nM) DRB1*15:01
[2] = molecular target: HLA DRB1*04:01 (Homo sapiens, UniProt P01903+P01911, A100K/A169T/F76Y/I96L/K127E/L162R/M171V/N62H/P40V/Q125Y/R42H/S133A/S149N/S66Y/V115G/V209L/W38E); experiment: biochemical; type: binding; conditions: binder threshold 1,000 nM, read-out: In vitro (IC50 nM) DRB1*04:01
[3] = molecular target: HLA DRB1*01:01 (Homo sapiens, UniProt P01903+P01911, A100R/D57E/F55L/F60I/F76Y/I96L/L162R/M171V/P40L/Q125E/R42F/V115G/Y59C); experiment: biochemical; type: binding; conditions: binder threshold 1,000 nM, read-out: In vitro (IC50 nM) DRB1*01:01
[4] = molecular target: HLA DRB1*07:01 (Homo sapiens, UniProt P01903+P01911, A100R/A102G/A103Q/D57E/D86V/E43K/F76Y/K127E/L162R/M171V/P40G/Q125H/Q99D/R33Q/R42Y/R54Q/S133A/S66F/T210M/V115G/Y107V/Y59L/Y89S); experiment: biochemical; type: binding; conditions: binder threshold 1,000 nM, read-out: In vitro (IC50 nM) DRB1*07:01
[5] = molecular target: HLA DRB1*03:01 (Homo sapiens, UniProt P01903+P01911, A100K/A102G/A103R/A169T/F55Y/I96L/K41T/L162R/M171V/P40S/Q125H/Q178H/Q39Y/R42S/S66N/T106N/T262R/W38E/Y61H); experiment: biochemical; type: binding; conditions: binder threshold 1,000 nM, read-out: In vitro (IC50 nM) DRB1*03:01
HLA DRB1*03:01, sequence (P01903 26-254, other chains not shown): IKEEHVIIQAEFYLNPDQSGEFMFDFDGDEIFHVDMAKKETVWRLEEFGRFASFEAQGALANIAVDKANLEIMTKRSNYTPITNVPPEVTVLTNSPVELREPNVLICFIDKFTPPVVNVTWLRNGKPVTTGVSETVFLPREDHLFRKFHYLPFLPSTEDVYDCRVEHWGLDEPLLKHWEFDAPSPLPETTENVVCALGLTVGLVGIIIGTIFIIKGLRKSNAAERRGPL

[6] = molecular target: HLA DRB1*08:02 (Homo sapiens, UniProt P01903+P01911, A100R/A103L/A169T/F76Y/H45Y/I96F/K41T/L162R/M171V/P40S/Q125H/Q178H/Q39Y/Q99D/R218S/R42G/S66Y/V115G/W38E); experiment: biochemical; type: binding; conditions: binder threshold 1,000 nM, read-out: In vitro (IC50 nM) DRB1*08:02
[7] = molecular target: HLA DRB1*09:01 (Homo sapiens, UniProt P01903+P01911, A100R/A103E/D57H/D86V/F55Y/F60I/F76Y/I96F/K127E/L162R/M171V/P40D/Q125H/Q99R/R33Q/R42F/S133A/S66N/T210M/V115G/W38K/Y107V/Y59G/Y89S); experiment: biochemical; type: binding; conditions: binder threshold 1,000 nM, read-out: In vitro (IC50 nM) DRB1*09:01
[8] = molecular target: HLA DRB1*11:01 (Homo sapiens, UniProt P01903+P01911, A100R/A169T/A87E/I96F/K41T/L162R/M171V/P40S/Q125H/Q178H/Q39Y/Q99D/R42S/S66Y/T262R/V115G/W38E); experiment: biochemical; type: binding; conditions: binder threshold 1,000 nM, read-out: In vitro (IC50 nM) DRB1*11:01
HLA DRB1*11:01, sequence (P01903 26-254, other chains not shown): as above

[9] = molecular target: HLA DRB1*12:01 (Homo sapiens, UniProt P01903+P01911, A100R/A169T/D57E/D86V/F55L/H45Y/K41T/L162R/M171V/P40S/Q125H/Q178H/Q39Y/Q99D/R42G/S66L/T262R/V114A/V67L/W38E/Y59H/Y61H/Y89S); experiment: biochemical; type: binding; conditions: binder threshold 1,000 nM, read-out: In vitro (IC50 nM) DRB1*12:01
[10] = molecular target: HLA DRB1*04:05 (Homo sapiens, UniProt P01903+P01911, A100R/A169T/D86S/F76Y/I96L/K127E/L162R/M171V/N62H/P40V/Q125Y/R42H/S133A/S149N/S66Y/V115G/V209L/W38E); experiment: biochemical; type: binding; conditions: binder threshold 1,000 nM, read-out: In vitro (IC50 nM) DRB1*04:05
[11] = system: pre-cultured PBMCs (NSP12-specific T cells); experiment: IFN-γ ELISpot with single 15-mer peptides after 11–13 days in vitro peptide-pool T-cell expansion; type: cell-based, human

| Compound | IC50 [1] [nM] | IC50 [2] [nM] | IC50 [3] [nM] | IC50 [4] [nM] | IC50 [5] [nM] | IC50 [6] [nM] | IC50 [7] [nM] | IC50 [8] [nM] | IC50 [9] [nM] | IC50 [10] [nM] | further results |
| --- | --- | --- | --- | --- | --- | --- | --- | --- | --- | --- | --- |
| CC(C)C[C@H](NC(=O)[C@H](C)NC(=O)[C@H](CC(=O)O)NC(=O)[C@H](CCC(N)=O)NC(=O)[C@H](CC(=O)O)NC(=O)[C@H](CCC(=O)O)NC(=O)[C@@H](N)Cc1ccc(O)cc1)C(=O)N[C@@H](Cc1ccccc1)C(=O)N[C@@H](C)C(=O)N[C@@H](Cc1ccc(O)cc1)C(=O)N[C@H](C(=O)N[C@@H](CCCCN)C(=O)N[C@@H](CCCNC(=N)N)C(=O)N[C@@H](CC(N)=O)C(=O)N[C@H](C(=O)O)C(C)C)[C@@H](C)O [Peptide 105] | 480 | 3090 | 16000 | 35 | 39400 | 495 | 8570 | 21 | – | – | – |
| CC(C)C[C@H](NC(=O)[C@H](Cc1ccc(O)cc1)NC(=O)[C@H](C)NC(=O)[C@H](Cc1ccc(O)cc1)NC(=O)[C@H](Cc1ccccc1)NC(=O)[C@H](CCC(=O)O)NC(=O)[C@H](CC(N)=O)NC(=O)[C@@H](NC(=O)[C@H](Cc1ccccc1)NC(=O)[C@H](CC(=O)O)NC(=O)[C@@H](NC(=O)[C@H](CC(=O)O)NC(=O)[C@@H](NC(=O)[C@@H](N)CC(=O)O)C(C)C)[C@@H](C)O)C(C)C)C(=O)N[C@@H](CCCNC(=N)N)C(=O)O [Peptide 148] | 1180 | 16900 | 856 | – | 28500 | 2200 | 6950 | 949 | – | – | – |
| CC(C)[C@H](NC(=O)[C@H](CO)NC(=O)[C@H](CC(N)=O)NC(=O)[C@H](C)NC(=O)[C@H](Cc1ccc(O)cc1)NC(=O)[C@H](C)NC(=O)[C@@H](NC(=O)[C@@H](NC(=O)[C@H](C)NC(=O)[C@H](CC(=O)O)NC(=O)CNC(=O)[C@H](CO)NC(=O)[C@@H](N)CO)[C@@H](C)O)[C@@H](C)O)C(=O)N[C@@H](Cc1ccccc1)C(=O)N[C@@H](CC(N)=O)C(=O)O [Peptide 137] | 567 | 5180 | 1800 | 3970 | – | – | 197 | 15900 | 22700 | 27200 | – |
| CC(C)C[C@H](NC(=O)[C@H](C)NC(=O)[C@H](CCCNC(=N)N)NC(=O)[C@@H](NC(=O)[C@H](CC(C)C)NC(=O)[C@@H](N)[C@@H](C)O)[C@@H](C)O)C(=O)N[C@H](C(=O)N[C@@H](C)C(=O)N[C@@H](CCC(=O)O)C(=O)N[C@@H](CO)C(=O)N[C@@H](Cc1c[nH]cn1)C(=O)N[C@H](C(=O)N[C@@H](CC(=O)O)C(=O)N[C@H](C(=O)N[C@@H](CC(=O)O)C(=O)O)[C@@H](C)O)C(C)C)[C@@H](C)O [NSP12_50] | 1290 | 4.1 | 2100 | 14 | 1640 | 501 | 59 | 301 | 4490 | 99 | – |
| CSCC[C@H](NC(=O)[C@H](CO)NC(=O)[C@H](Cc1ccccc1)NC(=O)[C@H](Cc1c[nH]cn1)NC(=O)[C@H](CCCCN)NC(=O)[C@H](CCCNC(=N)N)NC(=O)[C@H](CC(C)C)NC(=O)[C@H](Cc1ccc(O)cc1)NC(=O)[C@H](C)NC(=O)[C@H](Cc1ccc(O)cc1)NC(=O)[C@H](Cc1ccccc1)NC(=O)[C@H](CCC(=O)O)NC(=O)[C@H](CC(N)=O)NC(=O)[C@@H](NC(=O)[C@@H](N)Cc1ccccc1)C(C)C)C(=O)O [NSP12_149] | 1250 | 8370 | 36100 | 3830 | – | 828 | 2510 | 70 | 2540 | – | – |
| CC[C@H](C)[C@H](NC(=O)[C@H](CC(=O)O)NC(=O)[C@H](CS)NC(=O)[C@H](CCSC)NC(=O)[C@@H](NC(=O)[C@@H]1CCCN1C(=O)[C@H](CC(C)C)NC(=O)[C@H](CC(N)=O)NC(=O)[C@H](Cc1ccc(O)cc1)NC(=O)[C@H](CCCNC(=N)N)NC(=O)[C@@H](N)Cc1ccc(O)cc1)[C@@H](C)O)C(=O)N[C@@H](CCCNC(=N)N)C(=O)N[C@@H](CCC(N)=O)C(=O)N[C@@H](CC(C)C)C(=O)N[C@@H](CC(C)C)C(=O)O [Peptide 92] | 2910 | 5310 | 12000 | 1840 | – | – | 1490 | 8940 | 5120 | 4640 | – |
| DAVVCFNSTYASQGL [compound 153] | – | – | – | – | – | – | – | – | – | – | peptide-specific T-cell response, donor HH-N12-18, post COVID-19 ([11]; donor HH-N12-18, sample post COVID-19, single NSP12 15-mer peptide, 0 = no response): 0; peptide-specific T-cell response, donor HH-N12-18, pre COVID-19 ([11]; donor HH-N12-18, sample pre COVID-19, single NSP12 15-mer peptide, 0 = no response): 0; peptide-specific T-cell response, donor HH-N12-34, post COVID-19 ([11]; donor HH-N12-34, sample post COVID-19, single NSP12 15-mer peptide, 0 = no response): 0; peptide-specific T-cell response, donor HH-N12-34, pre COVID-19 ([11]; donor HH-N12-34, sample pre COVID-19, single NSP12 15-mer peptide, 0 = no response): 0; peptide-specific T-cell response, donor HH-N12-35, post COVID-19 ([11]; donor HH-N12-35, sample post COVID-19, single NSP12 15-mer peptide, 0 = no response): 0; peptide-specific T-cell response, donor HH-N12-35, pre COVID-19 ([11]; donor HH-N12-35, sample pre COVID-19, single NSP12 15-mer peptide, 0 = no response): 0; peptide-specific T-cell response, donor HH-N12-36, post COVID-19 ([11]; donor HH-N12-36, sample post COVID-19, single NSP12 15-mer peptide, 0 = no response): 0; peptide-specific T-cell response, donor HH-N12-36, pre COVID-19 ([11]; donor HH-N12-36, sample pre COVID-19, single NSP12 15-mer peptide, 0 = no response): 0; peptide-specific T-cell response, donor HH-N12-37, post COVID-19 ([11]; donor HH-N12-37, sample post COVID-19, single NSP12 15-mer peptide, 0 = no response): 0; peptide-specific T-cell response, donor HH-N12-37, pre COVID-19 ([11]; donor HH-N12-37, sample pre COVID-19, single NSP12 15-mer peptide, 0 = no response): 0 |
| LLKTVQFCDAMRNAG [compound 38] | – | – | – | – | – | – | – | – | – | – | peptide-specific response, donor HH-N12-18, post COVID-19 ([11]; donor HH-N12-18, sample post COVID-19, single NSP12 15-mer peptides): 0; peptide-specific response, donor HH-N12-18, pre COVID-19 ([11]; donor HH-N12-18, sample pre COVID-19, single NSP12 15-mer peptides): 0; peptide-specific response, donor HH-N12-34, post COVID-19 ([11]; donor HH-N12-34, sample post COVID-19, single NSP12 15-mer peptides): 0; peptide-specific response, donor HH-N12-34, pre COVID-19 ([11]; donor HH-N12-34, sample pre COVID-19, single NSP12 15-mer peptides): 0; peptide-specific response, donor HH-N12-35, post COVID-19 ([11]; donor HH-N12-35, sample post COVID-19, single NSP12 15-mer peptides): 0; peptide-specific response, donor HH-N12-35, pre COVID-19 ([11]; donor HH-N12-35, sample pre COVID-19, single NSP12 15-mer peptides): 0; peptide-specific response, donor HH-N12-36, post COVID-19 ([11]; donor HH-N12-36, sample post COVID-19, single NSP12 15-mer peptides): 0; peptide-specific response, donor HH-N12-36, pre COVID-19 ([11]; donor HH-N12-36, sample pre COVID-19, single NSP12 15-mer peptides): 0; peptide-specific response, donor HH-N12-37, post COVID-19 ([11]; donor HH-N12-37, sample post COVID-19, single NSP12 15-mer peptides): 0; peptide-specific response, donor HH-N12-37, pre COVID-19 ([11]; donor HH-N12-37, sample pre COVID-19, single NSP12 15-mer peptides): 0 |
